Source: ChEMBL document CHEMBL1201862, “PubChem BioAssay data set” (2004)
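Test compounds were applied to cells in 96-well plates for 48 hours at 5 doses. Abbreviation: GI50, concentration required for 50% inhibition of growth.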 Active and inactive are the calls of the source. Rule as the data show it: active = GI50 up to about 1.1 µM and inactive = higher.

Key:
Experiment in all cases: inhibition of tumour cell growth, NCI panel, 48 h
CAKI-1 = test system: CAKI-1
HCT-15 = test system: HCT-15
HOP-62 = test system: HOP-62
HT-29 = test system: HT-29
M14 = test system: M14
MOLT-4 = test system: MOLT-4
OVCAR-8 = test system: OVCAR-8
RPMI-8226 = test system: RPMI-8226
RXF 393 = test system: RXF 393
SF-268 = test system: SF-268
SF-295 = test system: SF-295
SK-OV-3 = test system: SK-OV-3
TK-10 = test system: TK-10
U-251 = test system: U-251
Malme-3M = test system: Malme-3M
SK-MEL-2 = test system: SK-MEL-2
SR = test system: SR

Row | Structure (SMILES) | GI50 (CAKI-1) | GI50 (HCT-15) [µM] | GI50 (HOP-62) | GI50 (HT-29) | GI50 (M14) | GI50 (MOLT-4) | GI50 (OVCAR-8) | GI50 (RPMI-8226) | GI50 (RXF 393) | GI50 (SF-268) | GI50 (SF-295) | GI50 (SK-OV-3) | GI50 (TK-10) | GI50 (U-251) | GI50 (Malme-3M) | GI50 (SK-MEL-2) | GI50 (SR)
1 | Cn1nc(-c2ccccc2)c(C(=O)/C=C/c2ccc(Cl)cc2)c(N2CCOCC2)c1=O | 0.652 µM (active) | 2.74 | 10.5 µM (inactive) | 1.83 µM (inactive) | 3.98 µM (inactive) | 0.752 µM (active) | 4.13 µM (inactive) | 2.34 µM (inactive) | 2.34 µM (inactive) | 3.48 µM (inactive) | 0.412 µM (active) | 5.51 µM (inactive) | 7.94 µM (inactive) | 3.37 µM (inactive) |  |  | 
2 | COc1ccc(C(=O)C(C(=O)C(=O)Nc2nc3ccc(OC)cc3s2)c2ccc(OC)cc2)cc1 (stereo not drawn) | > 100 µM (inactive) | > 100 | > 100 µM (inactive) | > 100 µM (inactive) | > 100 µM (inactive) | > 100 µM (inactive) | > 100 µM (inactive) | > 100 µM (inactive) |  | > 100 µM (inactive) | > 100 µM (inactive) | > 100 µM (inactive) | > 100 µM (inactive) | > 100 µM (inactive) | > 100 µM (inactive) | > 100 µM (inactive) | 
3 | CN(C(=O)C12C3C4C1C1C2C3C41C(=O)N(C)C(C)(C)C)C(C)(C)C (stereo not drawn) | > 50 µM (inactive) | > 50 | > 50 µM (inactive) | > 50 µM (inactive) | > 50 µM (inactive) | > 50 µM (inactive) | > 50 µM (inactive) |  |  | > 50 µM (inactive) | > 50 µM (inactive) | > 50 µM (inactive) |  | > 50 µM (inactive) | > 50 µM (inactive) |  | > 50 µM (inactive)
4 | CC(N)Cc1ccc(C(=O)Cl)cc1 (stereo not drawn) | > 100 µM (inactive) | > 100 | > 100 µM (inactive) | > 100 µM (inactive) | > 100 µM (inactive) | > 100 µM (inactive) | > 100 µM (inactive) | > 100 µM (inactive) | > 100 µM (inactive) | > 100 µM (inactive) | > 100 µM (inactive) | > 100 µM (inactive) | > 100 µM (inactive) | > 100 µM (inactive) | > 100 µM (inactive) | > 100 µM (inactive) | 
5 | Nc1ccn(CCOC(=O)c2ccccc2)c(=O)n1 | > 100 µM (inactive) | > 100 | > 100 µM (inactive) | > 100 µM (inactive) | > 100 µM (inactive) |  | > 100 µM (inactive) | > 100 µM (inactive) | > 100 µM (inactive) | > 100 µM (inactive) | > 100 µM (inactive) | > 100 µM (inactive) | > 100 µM (inactive) | > 100 µM (inactive) | > 100 µM (inactive) | > 100 µM (inactive) | 
6 | OCCc1cnco1 |  |  | > 100 µM (inactive) | > 100 µM (inactive) | > 100 µM (inactive) | > 100 µM (inactive) | > 100 µM (inactive) | > 100 µM (inactive) | > 100 µM (inactive) | > 100 µM (inactive) | > 100 µM (inactive) | > 100 µM (inactive) | > 100 µM (inactive) | > 100 µM (inactive) |  |  | 
7 | O=C(O)CNc1c2ccccc2[n+]([O-])c2ccccc12 | > 100 µM (inactive) | 72.1 | > 100 µM (inactive) | > 100 µM (inactive) | > 100 µM (inactive) | 69.3 µM (inactive) | 78.7 µM (inactive) | 31.8 µM (inactive) |  | > 100 µM (inactive) | > 100 µM (inactive) | > 100 µM (inactive) | > 100 µM (inactive) | > 100 µM (inactive) | 61.4 µM (inactive) | > 100 µM (inactive) | 
8 | CC1(C)C2CCC13CS(=O)(=O)N1O[C@]13C(=O)O2 (stereo partly drawn) |  | > 100 | > 100 µM (inactive) | > 100 µM (inactive) |  | > 100 µM (inactive) | > 100 µM (inactive) | > 100 µM (inactive) |  | > 100 µM (inactive) | > 100 µM (inactive) |  | > 100 µM (inactive) | > 100 µM (inactive) | > 100 µM (inactive) | > 100 µM (inactive) | > 100 µM (inactive)
